Experiments:
[1] = test system: Lucilia cuprina larvae; assay: Lucilia cuprina test (LUCICU); format: in vivo; details: application rate 100 ppm; treated horse meat; after 2 days
Outline: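 About 20 Lucilia cuprina larvae placed on horse meat treated with compound formulation (DMSO concentrate diluted in water). Kill (%) scored after 2 days, 100% meaning all larvae dead.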

[2] = test system: Myzus persicae; assay: Myzus test (MYZUPE spray treatment); format: in vivo; details: Chinese cabbage leaf discs, after 6 days
Procedure: Myzus Test (MYZUPE Spray Treatment) Solvent: 78 parts by weight of acetone • • 1.5 parts by weight of dimethylformamide Emulsifier: 0.5 part by weight of alkylaryl polyglycol ether To produce an appropriate active ingredient formulation, 1 part by weight of active ingredient is mixed with the stated amounts of solvent and emulsifier, and the concentrate is diluted with emulsifier-containing water to the desired concentration. Leaf discs of Chinese cabbage (Brassica pekinensis) infested by all stages of the green peach aphid (Myzus persicae) are sprayed with an active ingredient formulation of the desired concentration. After 6 days, the efficacy in % is determined. 100% means that all of the aphids have been killed; 0% means that none of the aphids have been killed.

[3] = logP (HPLC-MS); format: physicochemical; details: HPLC, reversed-phase column (C18), 43° C.
[4] = test system: Ctenocephalides felis; assay: Ctenocephalides felis oral (CTECFE); format: in vivo; details: application rate 100 ppm in citrated cattle blood; after 2 days
Outline: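 About 20 unfed adult fleas fed through a Parafilm membrane on citrated cattle blood containing the compound at the desired concentration, diluted from a DMSO concentrate. Kill in % was scored after 2 days, where 100% means all fleas dead and 0% none.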

[5] = test system: Spodoptera frugiperda; assay: Spodoptera frugiperda test (SPODFR spray treatment); format: in vivo; details: maize leaf discs, after 7 days
Outline: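 Maize leaf discs sprayed with active ingredient formulated in acetone/dimethylformamide with emulsifier, diluted in emulsifier-containing water to the desired concentration. After drying, discs were populated with armyworm caterpillars. Efficacy (%) scored after 7 days: 100% all caterpillars killed, 0% none killed.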

[6] = test system: Phaedon cochleariae; assay: Phaedon test (PHAECO spray treatment); format: in vivo; details: Chinese cabbage leaf discs, after 7 days
Outline: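 Chinese cabbage leaf discs were sprayed with compound in acetone/DMF with emulsifier, diluted in water to the test concentration. After drying, discs were infested with mustard beetle larvae. Efficacy in % was scored after 7 days, where 100% means all larvae were killed and 0% means none.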

[7] = test system: Boophilus microplus; assay: Boophilus microplus test (BOOPMI injection); format: in vivo; details: application rate 20 μg/animal; injected into the abdomen; after 7 days
Outline: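 Active ingredient dissolved in DMSO (10 mg in 0.5 ml, then diluted to the test concentration) and injected into the abdomen of Boophilus microplus ticks. Ticks kept in dishes in a climate-controlled room for 7 days. Efficacy (%) is based on laying of fertile eggs; 100% means no tick laid fertile eggs.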

[8] = test system: adult Musca domestica; assay: Musca domestica test (MUSCDO); format: in vivo; details: application rate 100 ppm; treated sponge; after 2 days
Outline: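 Compound dissolved in DMSO and diluted with water to the desired concentration was applied to a sponge, and vessels were populated with adult flies. Kill % was scored after 2 days, where 100% means all flies dead.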

[9] = test system: Tetranychus urticae; assay: Tetranychus test, OP-resistant (TETRUR spray treatment); format: in vivo; details: bean leaf discs, after 6 days
Outline: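 Bean leaf discs infested with all stages of OP-resistant T. urticae sprayed with compound formulated in acetone/DMF plus alkylaryl polyglycol ether emulsifier, diluted in water. Efficacy (% mites killed) scored after 6 days.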

[10] = acidic range pH 2.7, acetonitrile (0.1% formic acid)/water gradient, calibration with unbranched alkan-2-ones
[11] = acidic range pH 2.7, EEC directive 79/831 Annex V.A8, two values = both regioisomers (G = N)

SMILES	log p [3, 10]	log p [3, 11]	efficacy (kill in %) [1] [%]	efficacy in % ([2]; application rate 100 g/ha) [%]	efficacy (kill in %) [4] [%]	efficacy in % ([5]; application rate 100 g/ha) [%]	efficacy in % ([6]; application rate 100 g/ha) [%]	efficacy (laying of fertile eggs) [7] [%]	efficacy (kill in %) [8] [%]	efficacy in % ([9]; application rate 100 g/ha) [%]	efficacy in % ([2]; application rate 500 g/ha) [%]	efficacy in % ([5]; application rate 500 g/ha) [%]	efficacy in % ([6]; application rate 500 g/ha) [%]	efficacy in % ([9]; application rate 500 g/ha) [%]
CCn1c(C(=O)NC(c2ccc(F)c(Br)c2)C(F)(F)F)cc2cc(C(=O)NC3CC3)c(Cl)cc21 (stereo not shown) [Compound 12]	3.82	–	100	90	100	100	100	100	100	100	–	–	–	–
CCn1c(C(=O)NC(c2ccc(F)c(Cl)c2)C(F)(F)F)nc2cc(C(=O)NC3CC3)c(Cl)cc21 (stereo not shown) [Compound 37]	3.59	–	100	–	100	–	–	100	100	–	90	100	100	100
CCn1c(C(=O)NC(c2ccc(F)c(C(F)(F)F)c2)C(F)(F)F)nc2cc(C(=O)NC3CC3)c(Cl)cc21 (stereo not shown) [Compound 38]	3.71	–	100	100	100	–	–	100	100	–	90	100	100	100
CCn1c(C(=O)NC(c2cccc(Br)c2)C(F)(F)F)cc2cc(C(=O)NC3CC3)c(Cl)cc21 (stereo not shown) [Compound 40]	3.71	–	100	90	100	100	100	100	–	100	–	–	–	–
Cn1c(C(=O)NC(c2ccc(F)c(Cl)c2)C(F)(F)F)cc2cc(C(=O)NC3(C#N)CC3)c(Cl)cc21 (stereo not shown) [Compound 54]	3.52	–	100	100	100	100	100	100	100	100	–	–	–	–
C#CCn1c(C(=O)NC(c2ccc(F)c(C(F)(F)F)c2)C(F)(F)F)nc2cc(C(=O)NC3CC3)c(Cl)cc21 (stereo not shown) [Compound 97]	3.62	–	100	100	95	–	–	100	100	–	–	100	100	100
CCn1c(C(=O)NC(c2ccc(F)c(Br)c2)C(F)(F)F)cc2cc(C(=O)NC3(C#N)CC3)c(C)cc21 (stereo not shown) [Compound 191]	3.71	–	100	90	100	100	100	100	90	100	–	–	–	–
CCn1c(C(=O)NC(c2ccc(F)c(Cl)c2)C(F)(F)F)cc2cc(C(=O)NC3CC3)c(C)cc21 (stereo not shown) [Compound 192]	3.65	–	100	90	100	100	100	100	100	100	–	–	–	–
CCn1c(C(=O)NC(c2ccc(F)c(F)c2)C(F)(F)F)cc2cc(C(=O)NC3CC3)c(C)cc21 (stereo not shown) [Compound 295]	–	3.40	–	90	–	100	100	–	–	100	–	–	–	–

Continued, in another order:

log p [3, 10]	log p [3, 11]	SMILES	efficacy (kill in %) [1] [%]	efficacy in % ([2]; application rate 100 g/ha) [%]	efficacy (kill in %) [4] [%]	efficacy in % ([5]; application rate 100 g/ha) [%]	efficacy in % ([6]; application rate 100 g/ha) [%]	efficacy (laying of fertile eggs) [7] [%]	efficacy (kill in %) [8] [%]	efficacy in % ([9]; application rate 100 g/ha) [%]	efficacy in % ([2]; application rate 500 g/ha) [%]	efficacy in % ([5]; application rate 500 g/ha) [%]	efficacy in % ([6]; application rate 500 g/ha) [%]	efficacy in % ([9]; application rate 500 g/ha) [%]
–	3.59	O=C(NC1CC1)c1cc2nc(C(=O)NC(c3ccc(F)c(C(F)(F)F)c3)C(F)(F)F)n(C3CC3)c2cc1Br (stereo not shown) [Compound 300]	–	100	–	–	–	–	–	–	–	100	100	100
–	4.75	C=CCN(C(=O)c1cc2nc(C(=O)NC(c3ccc(F)c(Cl)c3)C(F)(F)F)n(CC=C)c2cc1Cl)C1CC1 (stereo not shown) [Compound 303]	–	90	–	–	–	–	–	–	–	100	100	100
–	4.19	CCn1c(C(=O)NC(c2cc(Cl)c(F)c(Cl)c2)C(F)(F)F)cc2cc(C(=O)NC3(C#N)CC3)c(Cl)cc21 (stereo not shown) [Compound 311]	–	90	–	100	100	–	–	100	–	–	–	–
–	3.38	O=C(NC1CC1)c1cc2nc(C(=O)NC(c3ccc(F)c(C(F)(F)F)c3)C(F)(F)F)n(C3CC3)c2cc1Cl (stereo not shown) [Compound 313]	–	–	–	–	–	–	–	–	90	100	100	90
–	3.43	O=C(NC1CC1)c1cc2nc(C(=O)NC(c3cccc(Br)c3)C(F)(F)F)n(C3CC3)c2cc1Cl (stereo not shown) [Compound 314]	–	90	–	100	100	–	–	90	–	–	–	–
–	3.47	CCn1c(C(=O)NC(c2ccc(F)c(F)c2)C(F)(F)F)cc2cc(C(=O)NC3(C#N)CC3)c(Cl)cc21 (stereo not shown) [Compound 315]	–	90	–	100	100	–	–	100	–	–	–	–
–	4.06	CCn1c(C(=O)NC(c2ccc(Cl)c(Cl)c2)C(F)(F)F)cc2cc(C(=O)NC3(C#N)CC3)c(Cl)cc21 (stereo not shown) [Compound 316]	–	90	–	100	100	–	–	100	–	–	–	–

From patent publication US9107411B2, “Indolecarboxamides and benzimidazolecarboxamides as insecticides and acaricides” (BAYER INTELLECTUAL PROPERTY GMBH, priority 2011, dated 2015)
